We go through eight cell lines from the supplement of paper PMC10307832.

Assay in all cases: relative viability (nuclei count vs DMSO), 5 days (fraction); higher = more cells survive
Compound in one assay: C=CCn1c(=O)c2cnc(Nc3ccc(N4CCN(C)CC4)cc3)nc2n1-c1cccc(C(C)(C)O)n1 [Adavosertib]
In a few lines: (§1)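 Only plates meeting two conditions passed: control CV below 25% and at least one doubling. Lung cancer cell lines, kept overnight at 37 °C in 1536-well plates, were pinned with five library-drug doses (not always all listed) √10 apart on vehicle-anchored plates and grown 5 days without medium change. A one-step fix, permeabilisation and Hoechst stain preceded 4× imaging and MetaXpress nuclear counting. Viability equals treated-well nuclei divided by vehicle-well nuclei, as the median over plates.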

Compound in the next assay: COc1nc(N)nc2c1ncn2[C@@H]1O[C@H](CO)[C@@H](O)[C@@H]1O [Nelarabine]
In outline:
as §1

Compound in the assay “Nelarabine + Navitoclax”: COc1nc(N)nc2c1ncn2[C@@H]1O[C@H](CO)[C@@H](O)[C@@H]1O [Nelarabine] + CC1(C)CCC(c2ccc(Cl)cc2)=C(CN2CCN(c3ccc(C(=O)NS(=O)(=O)c4ccc(N[C@H](CCN5CCOCC5)CSc5ccccc5)c(S(=O)(=O)C(F)(F)F)c4)cc3)CC2)C1 [Navitoclax] (partner 0.5 µM)
In outline:
(§2)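 The day after seeding in 1536-well plates, lung cancer cell lines were treated by pin tool with a single drug, or with a fixed anchor-drug dose together with five library-drug doses (not always all listed) in √10 steps. After 5 days, a combined fix-and-stain solution (final 0.05% Triton X-100, 1% formaldehyde, 1 ug/ml Hoechst) was added. Nuclei counted on 4× images gave relative viability as treated counts over vehicle counts, reported as the median of duplicate plates.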

Compound in the assay “Adavosertib + Trametinib”: C=CCn1c(=O)c2cnc(Nc3ccc(N4CCN(C)CC4)cc3)nc2n1-c1cccc(C(C)(C)O)n1 [Adavosertib] + CC(=O)Nc1cccc(-n2c(=O)n(C3CC3)c(=O)c3c(Nc4ccc(I)cc4F)n(C)c(=O)c(C)c32)c1 [Trametinib] (partner 0.02 µM)
In outline: as §2

For the cell line SK-MES-1, the relative viability was found to be 0.989 with Adavosertib (0.01 µM); 1.01 with Adavosertib (0.03162 µM); 0.931 with Adavosertib (0.1 µM); 0.528 with Adavosertib (0.3162 µM); 1.15 in the assay with Nelarabine (0.01 µM); 1.09 in the assay with Nelarabine (0.03162 µM). Besides, the relative viability in the assay with Nelarabine (0.1 µM) stood at 1.01; in the assay with Nelarabine (0.3162 µM), 1.09; with Nelarabine (1 µM), 1.04; with Nelarabine + Navitoclax (first compound 0.01 µM), 1.36; with Nelarabine + Navitoclax (first compound 0.03162 µM) it was 1.55; with Nelarabine + Navitoclax (first compound 0.1 µM), 1.13. Further, the relative viability is 1.09 with Nelarabine + Navitoclax (first compound 0.3162 µM); 1.29 in the assay with Nelarabine + Navitoclax (first compound 1 µM); 0.556 in the assay with Adavosertib + Trametinib (first compound 0.01 µM); 0.576 in the assay with Adavosertib + Trametinib (first compound 0.03162 µM); 0.529 with Adavosertib + Trametinib (first compound 0.1 µM); 0.486 in the assay with Adavosertib + Trametinib (first compound 0.3162 µM).
For NCI-H2170, the relative viability in the assay with Adavosertib (0.01 µM) amounted to 1.03; with Adavosertib (0.03162 µM), 0.959; with Adavosertib (0.1 µM), 0.888; with Adavosertib (0.3162 µM), 0.819; in the assay with Nelarabine (0.01 µM), 1.16; with Nelarabine (0.03162 µM), 0.912. Besides, the relative viability with Nelarabine (0.1 µM) worked out at 0.956; with Nelarabine (0.3162 µM), 1.07; in the assay with Nelarabine (1 µM), 1; in the assay with Nelarabine + Navitoclax (first compound 0.01 µM), 0.564; with Nelarabine + Navitoclax (first compound 0.03162 µM), 0.627; with Nelarabine + Navitoclax (first compound 0.1 µM), 0.65. In addition, the relative viability in the assay with Nelarabine + Navitoclax (first compound 0.3162 µM) turned out to be 0.678; with Nelarabine + Navitoclax (first compound 1 µM), 0.552; with Adavosertib + Trametinib (first compound 0.01 µM) it was 0.946; with Adavosertib + Trametinib (first compound 0.03162 µM), 0.972; with Adavosertib + Trametinib (first compound 0.1 µM), 0.831; in the assay with Adavosertib + Trametinib (first compound 0.3162 µM), 0.745.
Take NCI-H1648: the relative viability in the assay with Adavosertib (0.01 µM) worked out at 0.907; with Adavosertib (0.03162 µM), 0.847; with Adavosertib (0.1 µM), 0.838; with Adavosertib (0.3162 µM), 0.71; with Nelarabine (0.01 µM), 0.713; with Nelarabine (0.03162 µM), 0.929. Moreover, the relative viability with Nelarabine (0.1 µM) was 0.776; in the assay with Nelarabine (0.3162 µM), 1.11; with Nelarabine (1 µM) it was 0.881; in the assay with Adavosertib + Trametinib (first compound 0.01 µM), 0.536; in the assay with Adavosertib + Trametinib (first compound 0.03162 µM), 0.473; in the assay with Adavosertib + Trametinib (first compound 0.1 µM), 0.594. The relative viability in the assay with Adavosertib + Trametinib (first compound 0.3162 µM) is 0.448.
As for UMC-11, the relative viability in the assay with Adavosertib (0.01 µM) came to 0.973; with Adavosertib (0.03162 µM), 0.943; with Adavosertib (0.1 µM) it was 1; with Adavosertib (0.3162 µM) it was 1.08; in the assay with Nelarabine (0.01 µM), 1.1; in the assay with Nelarabine (0.03162 µM), 0.821. Besides, the relative viability with Nelarabine (0.1 µM) worked out at 0.987; in the assay with Nelarabine (0.3162 µM), 1.07; with Nelarabine (1 µM) it was 0.996; with Nelarabine + Navitoclax (first compound 0.01 µM), 0.291; in the assay with Nelarabine + Navitoclax (first compound 0.03162 µM) it was 0.277; in the assay with Nelarabine + Navitoclax (first compound 0.1 µM) it was 0.307. The relative viability came to 0.306 with Nelarabine + Navitoclax (first compound 0.3162 µM); 0.313 with Nelarabine + Navitoclax (first compound 1 µM); 0.74 in the assay with Adavosertib + Trametinib (first compound 0.01 µM); 0.633 in the assay with Adavosertib + Trametinib (first compound 0.03162 µM); 0.743 with Adavosertib + Trametinib (first compound 0.1 µM); 0.615 with Adavosertib + Trametinib (first compound 0.3162 µM).
HCC-15: the relative viability stood at 0.979 in the assay with Adavosertib (0.01 µM); 1.05 in the assay with Adavosertib (0.03162 µM); 1.07 with Adavosertib (0.1 µM); 1.23 with Adavosertib (0.3162 µM); 1.16 with Nelarabine (0.01 µM); 0.978 with Nelarabine (0.03162 µM). Further, the relative viability in the assay with Nelarabine (0.1 µM) was determined as 1.06; with Nelarabine (0.3162 µM) it was 1.07; in the assay with Nelarabine (1 µM), 1.06; in the assay with Nelarabine + Navitoclax (first compound 0.01 µM), 0.794; with Nelarabine + Navitoclax (first compound 0.03162 µM), 0.633; with Nelarabine + Navitoclax (first compound 0.1 µM), 0.686. Besides, the relative viability was determined as 0.724 with Nelarabine + Navitoclax (first compound 0.3162 µM); 0.705 in the assay with Nelarabine + Navitoclax (first compound 1 µM); 0.399 with Adavosertib + Trametinib (first compound 0.01 µM); 0.402 in the assay with Adavosertib + Trametinib (first compound 0.03162 µM); 0.377 with Adavosertib + Trametinib (first compound 0.1 µM); 0.379 in the assay with Adavosertib + Trametinib (first compound 0.3162 µM).
Turning to HCC-78, the relative viability stood at 0.85 with Adavosertib (0.01 µM); 0.973 with Adavosertib (0.03162 µM); 1.03 with Adavosertib (0.1 µM); 1.04 with Adavosertib (0.3162 µM); 1.01 with Nelarabine (0.01 µM); 0.942 with Nelarabine (0.03162 µM). Moreover, the relative viability is 1.05 in the assay with Nelarabine (0.3162 µM); 0.932 with Nelarabine (1 µM); 0.96 with Nelarabine + Navitoclax (first compound 0.01 µM); 0.925 in the assay with Nelarabine + Navitoclax (first compound 0.03162 µM); 0.955 in the assay with Nelarabine + Navitoclax (first compound 0.3162 µM); 0.901 with Nelarabine + Navitoclax (first compound 1 µM). Also, the relative viability with Adavosertib + Trametinib (first compound 0.01 µM) worked out at 0.859; with Adavosertib + Trametinib (first compound 0.03162 µM) it was 0.737; with Adavosertib + Trametinib (first compound 0.1 µM) it was 0.888; in the assay with Adavosertib + Trametinib (first compound 0.3162 µM), 0.852.
Turning to NCI-H647, the relative viability with Adavosertib (0.01 µM) came out at 1.03; in the assay with Adavosertib (0.03162 µM) it was 1.04; with Adavosertib (0.1 µM), 0.918; with Adavosertib (0.3162 µM) it was 0.669; in the assay with Nelarabine (0.01 µM), 1.29; with Nelarabine (0.03162 µM) it was 0.916. Besides, the relative viability stood at 1.07 in the assay with Nelarabine (0.1 µM); 1.14 with Nelarabine (0.3162 µM); 0.997 in the assay with Nelarabine (1 µM); 1.6 with Nelarabine + Navitoclax (first compound 0.01 µM); 1.01 in the assay with Nelarabine + Navitoclax (first compound 0.03162 µM); 1.13 with Nelarabine + Navitoclax (first compound 0.1 µM). For the same cell line, the relative viability with Nelarabine + Navitoclax (first compound 0.3162 µM) came out at 1.43; with Nelarabine + Navitoclax (first compound 1 µM) it was 1.07; with Adavosertib + Trametinib (first compound 0.01 µM), 0.561; with Adavosertib + Trametinib (first compound 0.03162 µM) it was 0.432; with Adavosertib + Trametinib (first compound 0.1 µM), 0.428; with Adavosertib + Trametinib (first compound 0.3162 µM), 0.415.
Consider NCI-H2009, for which the relative viability with Adavosertib (0.01 µM) worked out at 1.02; with Adavosertib (0.03162 µM), 1.01; with Adavosertib (0.1 µM) it was 1.07; with Adavosertib (0.3162 µM) it was 1.02; with Nelarabine (0.01 µM), 1.23; with Nelarabine (0.03162 µM), 1.07. The relative viability in the assay with Nelarabine (0.1 µM) amounted to 1; with Nelarabine (0.3162 µM) it was 1.02; in the assay with Nelarabine (1 µM) it was 1.03; with Nelarabine + Navitoclax (first compound 0.01 µM), 1.26; in the assay with Nelarabine + Navitoclax (first compound 0.03162 µM) it was 1.18; with Nelarabine + Navitoclax (first compound 0.1 µM) it was 1.19. In addition, the relative viability came to 1.2 in the assay with Nelarabine + Navitoclax (first compound 0.3162 µM); 1.18 with Nelarabine + Navitoclax (first compound 1 µM); 0.291 in the assay with Adavosertib + Trametinib (first compound 0.01 µM); 0.308 with Adavosertib + Trametinib (first compound 0.03162 µM); 0.254 with Adavosertib + Trametinib (first compound 0.1 µM); 0.217 with Adavosertib + Trametinib (first compound 0.3162 µM).
